The values below come from patent publication US9920010B2, “CXCR7 receptor modulators” (IDORSIA PHARMACEUTICALS LTD, priority 2013, dated 2018).

The target in the assay is T1, CXCR7 (Homo sapiens, UniProt P25106).
T1 construct: host or cells: CHO-K1 (PathHunter CHO-K1 CXCR7 b-arrestin cell line, stably transfected)
The assay can be described thus: PathHunter CHO-K1 CXCR7 b-arrestin recruitment assay (CXCR7 agonistic activity). It is filed as cell-based. Conditions: PathHunter CHO-K1 CXCR7 b-arrestin cell line. The method, boiled down: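 Stable CHO-K1 line with C-terminally ProLink-tagged CXCR7 and β-arrestin 2–EA fusion; β-arrestin recruitment restores β-gal activity, read by chemiluminescence after 1 h RT detection. Cells seeded 24 h, starved in OPTIMEM 3–4 h, exposed to compounds 90 min at 37 °C in HBSS/HEPES/BSA. Geometric-mean EC50 from repeated measurements.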
Background: Arrestin recruitment assays detect the binding of arrestin to an activated receptor.

T1 sequence (P25106 whole entry): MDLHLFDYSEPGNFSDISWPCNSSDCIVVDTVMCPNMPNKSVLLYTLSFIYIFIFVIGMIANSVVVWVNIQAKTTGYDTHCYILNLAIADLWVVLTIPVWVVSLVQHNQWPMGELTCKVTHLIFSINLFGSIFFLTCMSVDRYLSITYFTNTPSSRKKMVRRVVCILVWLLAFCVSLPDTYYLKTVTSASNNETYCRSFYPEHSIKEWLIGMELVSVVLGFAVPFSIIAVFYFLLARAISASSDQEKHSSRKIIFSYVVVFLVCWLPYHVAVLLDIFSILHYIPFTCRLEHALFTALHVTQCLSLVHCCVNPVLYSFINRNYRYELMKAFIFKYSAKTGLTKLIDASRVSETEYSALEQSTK
T1 sequence (P32121 whole entry partner): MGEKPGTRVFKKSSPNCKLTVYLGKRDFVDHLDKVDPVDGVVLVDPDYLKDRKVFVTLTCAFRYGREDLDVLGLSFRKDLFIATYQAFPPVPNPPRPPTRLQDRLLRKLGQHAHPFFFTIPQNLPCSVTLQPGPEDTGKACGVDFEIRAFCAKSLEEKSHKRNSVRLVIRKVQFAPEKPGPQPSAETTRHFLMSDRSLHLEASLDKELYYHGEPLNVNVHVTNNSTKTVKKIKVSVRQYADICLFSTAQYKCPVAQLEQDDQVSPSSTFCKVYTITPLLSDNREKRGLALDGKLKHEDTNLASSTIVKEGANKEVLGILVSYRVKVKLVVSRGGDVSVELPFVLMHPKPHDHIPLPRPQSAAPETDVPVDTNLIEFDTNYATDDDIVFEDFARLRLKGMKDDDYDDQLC

With `CN(C)CCN(Cc1ccccc1C(F)(F)F)C(=O)CNc1c(Cl)ccc2c1CCN(CC1CC1)C2` [Example 88, 2-(6-Chloro-2-cyclopropylmethyl-1,2,3,4-tetrahydro-isoquinolin-5-ylamino)-N-(2-dimethylamino-ethyl)-N-(2-trifluoromethyl-benzyl)-acetamide], the EC50 (usually the concentration needed to bring the measured effect to its halfway point) turned out to be 11 nM.
On to `CCN1CCc2cccc(NCC(=O)N(Cc3ccccc3)C3CCNC3)c2C1` (racemic) [compound 378], for which the concentration for a half-maximal effect (EC50) was found to be 321 nM.
Turning to `CCOC(=O)N1CCc2c(cccc2NCC(=O)N(CCNC)Cc2ccccc2C(F)(F)F)C1` [compound 395, 5-({[(2-Methylamino-ethyl)-(2-trifluoromethyl-benzyl)-carbamoyl]-methyl}-amino)-3,4-dihydro-1H-isoquinoline-2-carboxylic acid ethyl ester], the EC50 came out at 32 nM.
The compound `CN(C)CCN(Cc1ccccc1C(F)(F)F)C(=O)CNc1cccc2c1CCN(c1nc(C(F)(F)F)cs1)C2` [Example 376, N-(2-Dimethylamino-ethyl)-N-(2-trifluoromethyl-benzyl)-2-[2-(4-trifluoromethyl-thiazol-2-yl)-1,2,3,4-tetrahydro-isoquinolin-5-ylamino]-acetamide] displayed an EC50 of 27 nM.
Take `CNCCN(Cc1ccccc1C(F)(F)F)C(=O)CNc1cccc2c1CCN(C(C)=O)C2` [compound 445, 2-(2-Acetyl-1,2,3,4-tetrahydro-isoquinolin-5-ylamino)-N-(2-methylamino-ethyl)-N-(2-trifluoromethyl-benzyl)-acetamide]: the EC50 was 11 nM.
The compound `CNCCN(Cc1ncccc1C(F)(F)F)C(=O)CNc1cccc2c1CCN(C(=O)NC(C)C)C2` [compound 430, 5-({[(2-Methylamino-ethyl)-(3-trifluoromethyl-pyridin-2-ylmethyl)-carbamoyl]-methyl}-amino)-3,4-dihydro-1H-isoquinoline-2-carboxylic acid isopropylamide] showed an EC50 of 9 nM.
For the compound `C=CCOC(=O)N1CCc2c(cccc2NCC(=O)N(CCNC)Cc2ncccc2C(F)(F)F)C1` [compound 422, 5-({[(2-Methylamino-ethyl)-(3-trifluoromethyl-pyridin-2-ylmethyl)-carbamoyl]-methyl}-amino)-3,4-dihydro-1H-isoquinoline-2-carboxylic acid allyl ester], the EC50 is 33 nM.
`CCC(=O)N1CCc2c(cccc2NCC(=O)N(CCN(C)C)Cc2ccccc2F)C1` [Example 23, N-(2-Dimethylamino-ethyl)-N-(2-fluoro-benzyl)-2-(2-propionyl-1,2,3,4-tetrahydro-isoquinolin-5-ylamino)-acetamide]: the response was half-maximal at 16 nM (EC50).
Next, `CCN1CCc2cccc(NCC(=O)N(Cc3nc(C)cs3)Cc3ccccc3C(F)(F)F)c2C1` [compound 520]: 188 nM; `CC(C)CN1CCc2cccc(NCC(=O)N(CCN(C)C)Cc3ccccc3C(F)(F)F)c2C1` [compound 557, N-(2-Dimethylamino-ethyl)-2-(2-isobutyl-1,2,3,4-tetrahydro-isoquinolin-8-ylamino)-N-(2-trifluoromethyl-benzyl)-acetamide]: 5 nM.
Regarding `CNCCN(Cc1ccccc1C(F)(F)F)C(=O)CNc1cccc2c1CCN(C(=O)OCC(C)(C)C)C2` [compound 402], a half-maximal effect (EC50) was put at 198 nM.
Next, `CCN1CCc2c(/C=C/C(=O)N(Cc3ccccc3C(F)(F)F)C3CCN(C)CC3)cccc2C1` [compound 151, (E)-3-(2-Ethyl-1,2,3,4-tetrahydro-isoquinolin-5-yl)-N-(1-methyl-piperidin-4-yl)-N-(2-trifluoromethyl-benzyl)-acrylamide]: 34 nM; `CCOC(=O)N1CCc2c(cccc2NCC(=O)N(CCN(C)C)Cc2ccccc2)C1` [compound 117]: 79 nM; `CN1CCCC1CCN(CCCc1ccccc1)C(=O)CNc1cccc2c1CCN(CC1CC1)C2` (racemic) [Example 52, rac-2-(2-Cyclopropylmethyl-1,2,3,4-tetrahydro-isoquinolin-5-ylamino)-N-[2-(1-methyl-pyrrolidin-2-yl)-ethyl]-N-(3-phenyl-propyl)-acetamide]: 17 nM.
In the case of `COCCN1CCc2c(/C=C/C(=O)N(Cc3ccccc3C(F)(F)F)CC(O)COC)cccc2C1` (centres unmarked) [Example 321, (E)-N-(2-Hydroxy-3-methoxy-propyl)-3-[2-(2-methoxy-ethyl}-1,2,3,4-tetrahydro-isoquinolin-5-yl]-N-(2-trifluoromethyl-benzyl)-acrylamide], a half-maximal effect (EC50) was put at 244 nM.
Then `CCC(=O)N1CCc2c(cccc2NCC(=O)N(Cc2ccccc2)Cc2nccn2C)C1` [Example 26, N-Benzyl-N-(1-methyl-1H-imidazol-2-ylmethyl)-2-(2-propionyl-1,2,3,4-tetrahydro-isoquinolin-5-ylamino)-acetamide], with 442 nM; and `CN(C)CCN(Cc1ncccc1Cl)C(=O)CNc1cccc2c1CN(CC1CC1)CC2` [compound 485, N-(3-Chloro-pyridin-2-ylmethyl)-2-(2-cyclopropylmethyl-1,2,3,4-tetrahydro-isoquinolin-8-ylamino)-N-(2-dimethylamino-ethyl)-acetamide], with 8 nM.
Next, `CN(C)CCN(Cc1ccccc1)C(=O)CNc1cccc2c1CCN(C(=O)CC1CCCCC1)C2` [compound 129]: 449 nM; `O=C(CNc1cccc2c1CCN(CC1CC1)C2)N(Cc1ccccc1C(F)(F)F)C[C@@H]1CCNC1` [compound 379]: 3 nM; `CN(C)CCN(Cc1ccncc1Br)C(=O)CNc1cccc2c1CCN(CC1CC1)C2` [Example 239, N-(3-Bromo-pyridin-4-ylmethyl)-2-(2-cyclopropylmethyl-1,2,3,4-tetrahydro-isoquinolin-5-ylamino)-N-(2-dimethylamino-ethyl)-acetamide]: 23 nM.
As for `CNCCN(Cc1ncccc1C(F)(F)F)C(=O)CNc1cccc2c1CCN(C(=O)C1CC1)C2` [compound 410, 2-(2-Cyclopropanecarbonyl-1,2,3,4-tetrahydro-isoquinolin-5-ylamino)-N-(2-methylamino-ethyl)-N-(3-trifluoromethyl-pyridin-2-ylmethyl)-acetamide], the midpoint of the response, the EC50, lay at 5 nM.
In turn, `CN1CCC(N(Cc2ccccc2C(F)(F)F)C(=O)/C=C/c2cccc3c2CCN(C(=O)OC(C)(C)C)C3)CC1` [Example 96, 5-{(E)-2-[(1-Methyl-piperidin-4-yl)-(2-trifluoromethyl-benzyl)-carbamoyl]-vinyl}-3,4-dihydro-1H-isoquinoline-2-carboxylic acid tert-butyl ester] showed an EC50 of 249 nM.
With `CN(C)CCN(Cc1ccccc1C(F)(F)F)C(=O)/C=C/c1cccc2c1CCN(CC1CC1)C2` [compound 150, (E)-3-(2-Cyclopropylmethyl-1,2,3,4-tetrahydro-isoquinolin-5-yl)-N-(2-dimethylamino-ethyl)-N-(2-trifluoromethyl-benzyl)-acrylamide], a half-maximal response (EC50) required 1 nM.
`CN(C)CCN(Cc1ccccc1C(F)(F)F)C(=O)CNc1cccc2c1CN(C(=O)C1CC1)CC2` [compound 560, 2-(2-Cyclopropanecarbonyl-1,2,3,4-tetrahydro-isoquinolin-8-ylamino)-N-(2-dimethylamino-ethyl)-N-(2-trifluoromethyl-benzyl)-acetamide] had an EC50 of 5 nM.
Then `CCOC(=O)[C@@H]1C[C@H]1CN(Cc1ccccc1C(F)(F)F)C(=O)CNc1cccc2c1CCN(CC1CC1)C2` (racemic) [Example 81, rac-trans-2-{[[2-(2-Cyclopropylmethyl-1,2,3,4-tetrahydro-isoquinolin-5-ylamino)-acetyl]-(2-trifluoromethyl-benzyl)-amino]-methyl}-cyclopropanecarboxylic acid ethyl ester], with 126 nM; and `O=C(CNc1cccc2c1CCN(CC1CC1)C2)N(CCN1CCCCCC1)Cc1ccccc1C(F)(F)F` [Example 218, N-(2-Azepan-1-yl-ethyl)-2-(2-cyclopropylmethyl-1,2,3,4-tetrahydro-isoquinolin-5-ylamino)-N-(2-trifluoromethyl-benzyl)-acetamide], with 2 nM; and `CN1CCCC1CCN(Cc1ccccc1)C(=O)CNc1cccc2c1CCN(CC1CC1)C2` (racemic) [Example 42, rac-N-Benzyl-2-(2-cyclopropylmethyl-1,2,3,4-tetrahydro-isoquinolin-5-ylamino)-N-[2-(1-methyl-pyrrolidin-2-yl)-ethyl]-acetamide], with 5 nM.
Then `CN(C)CCN(Cc1ncccc1Cl)C(=O)/C=C/c1cccc2c1CCN(C(=O)[C@H]1C[C@H]1F)C2` (racemic) [Example 330, rac-(E)-N-(3-Chloro-pyridin-2-ylmethyl)-N-(2-dimethylamino-ethyl)-3-[2-((1R*,2R*)-2-fluoro-cyclopropanecarbonyl)-1,2,3,4-tetrahydro-isoquinolin-5-yl]-acrylamide], with 11 nM.
Regarding `C#CCOC(=O)N1CCc2c(cccc2NCC(=O)N(CCNC)Cc2ccccc2C(F)(F)F)C1` [compound 396, 5-({[(2-Methylamino-ethyl)-(2-trifluoromethyl-benzyl)-carbamoyl]-methyl}-amino)-3,4-dihydro-1H-isoquinoline-2-carboxylic acid prop-2-ynyl ester], the EC50 came out at 38 nM.
Then `CCN1CCc2cccc(OC3(C(=O)N(CCN(C)C)Cc4ccccc4C(F)(F)F)CCC3)c2C1` [compound 549], with 257 nM; and `O=C(CNc1cccc2c1CCN(CC1CC1)C2)N(Cc1ccccc1C(F)(F)F)C1CCOCC1` [Example 74, 2-(2-Cyclopropylmethyl-1,2,3,4-tetrahydro-isoquinolin-5-ylamino)-N-(tetrahydro-pyran-4-yl)-N-(2-trifluoromethyl-benzyl)-acetamide], with 49 nM.
Compound `O=C(CNc1cccc2c1CN(CC1CC1)CC2)N(CCN1CCC(F)(F)CC1)Cc1ccccc1C(F)(F)F` [compound 474, 2-(2-Cyclopropylmethyl-1,2,3,4-tetrahydro-isoquinolin-8-ylamino)-N-[2-(4,4-difluoro-piperidin-1-yl)-ethyl]-N-(2-trifluoromethyl-benzyl)-acetamide] came in with a concentration for a half-maximal effect (EC50) of 47 nM.
